Patent US8669292B2, “Therapeutic formulation” (Orion Therapeutics, LLC, priority 2005, dated 2014)
Converted amounts (≈) assume the structure as drawn. Where two headings read alike, the source gives them in different places. Blank lines part the entries; values can stand above or below the compound they belong to.

Key:
[1] = test system: HCT-116 human colon cancer cells; assay: IC50 assay (concentration-cell number study); assay type: cell-based; settings: HCT-116, 120 h exposure
Protocol: Concentration-cell number studies (IC50 assay) were carried out utilizing 12 separate compositions (numbered 1-12 below) against 13 different cancer cell lines (see Table 6). […] On day 3, cells are exposed to different concentrations of the drug. Flasks are incubated for 120 h (5 d) in a 5% CO2 incubator at 37° C. and the cells harvested with trypsin, washed once with Hanks Balanced Salt Solution (HBSS) and re-suspended in HBSS containing 0.08% Trypan Blue. Both viable and dead cells are counted using a hemocytometer. Viable cell numbers are normalized to an untreated control and plotted as a function of drug concentration. The IC50 value is determined using Prism 4.0.

[2] = test system: HCT-116 human colon cancer cells; assay: Clonogenic dose response; assay type: cell-based
Protocol: Clonogenic survival of the cells was measured by a standard tissue culture procedure.
Asimicin was prepared in ethanol. Clonogenic survival of the cells was measured by a standard tissue culture procedure.

[3] = ORAC hydro (Brunswick Test # A101); assay type: biochemical; settings: Cantron oral liquid scores converted from TE/L to TE/g
Protocol: (§1) Peroxyl radical scores are measured in the ORAC test (Oxygen Radical Absorption Capacity). Hydroxyl Radicals are tested in the HORAC test (Hydroxyl Radical Absorption Capacity). Peroxynitrite Radicals are tested in the NORAC test (Peroxynitrite Radical Absorption Capacity). Superoxide Radicals are measured in the SOD test (Superoxide Radical Absorption Capacity). The ORAC test measures the antioxidant activity against peroxyl radicals by determining how many peroxyl free radicals can be absorbed by a given antioxidant as compared to the vitamin E analog-Trolox. The result is expressed as micromoles of Trolox equivalent per liter (TE/L) for liquid formulations and Trolox equivalent per gram (TE/g) for dry powders. Brunswick tested the Applicant's compounds for antioxidant activity against both hydrophilic and lipophilic peroxyl radicals as expressed in the ORAC total (see table 7).

[4] = HORAC (Brunswick Test # A104); assay type: biochemical; settings: Cantron oral liquid scores converted from CAE/L to CAE/g
Protocol: Peroxyl radical scores are measured in the ORAC test (Oxygen Radical Absorption Capacity). Hydroxyl Radicals are tested in the HORAC test (Hydroxyl Radical Absorption Capacity). Peroxynitrite Radicals are tested in the NORAC test (Peroxynitrite Radical Absorption Capacity). Superoxide Radicals are measured in the SOD test (Superoxide Radical Absorption Capacity). […] The result is expressed as micromoles of caffeic acid equivalent per liter (CAE/L) for liquid formulations and caffeic acid equivalent per gram (CAE/g) for dry powders.

[5] = ORAC total (Brunswick Test # A103); assay type: biochemical; settings: Cantron oral liquid scores converted from TE/L to TE/g
Protocol: as §1

[6] = ORAC lipo (Brunswick Test # A102); assay type: biochemical; settings: Cantron oral liquid scores converted from TE/L to TE/g
Protocol: as §1

[7] = NORAC (Brunswick Test # A105); assay type: biochemical; settings: Cantron oral liquid scores converted from TE/L to TE/g
Protocol: Peroxyl radical scores are measured in the ORAC test (Oxygen Radical Absorption Capacity). Hydroxyl Radicals are tested in the HORAC test (Hydroxyl Radical Absorption Capacity). Peroxynitrite Radicals are tested in the NORAC test (Peroxynitrite Radical Absorption Capacity). Superoxide Radicals are measured in the SOD test (Superoxide Radical Absorption Capacity). Applicant's compounds and compositions were tested by the NORAC test (Brunswick test # A 105), which measures the activity of a given antioxidant against peroxynitrite radicals. NORAC tests were based on the method of Chung H. et al (2001) Journal Agricultural of Food Chemistry, 49: 3614-3621. Scores are expressed in micromoles of trolox equivalent per liter (TE/L) for liquid formulations and Trolox equivalent per gram (TE/g) for dry powders.

[8] = SORAC (Brunswick Test # A106); assay type: biochemical; settings: Cantron oral liquid scores converted from unitsSODeq/L to unitsSODeq/g
Protocol: Peroxyl radical scores are measured in the ORAC test (Oxygen Radical Absorption Capacity). Hydroxyl Radicals are tested in the HORAC test (Hydroxyl Radical Absorption Capacity). Peroxynitrite Radicals are tested in the NORAC test (Peroxynitrite Radical Absorption Capacity). Superoxide Radicals are measured in the SOD test (Superoxide Radical Absorption Capacity). Applicant's compounds and compositions were tested by the SORAC test (Brunswick test #106), which measures the activity of a given antioxidant against Superoxide radicals. The tests were conducted based on the method of Zhao et al (1999) Journal of Agricultural and Food Chemistry, (1999), 47: 2537-2543. The calibration standard was SOD and was expressed as a unit SOD equivalent per liter (unitsSODeq/L) for liquid formulations and unit SOD equivalent per gram (unitsSODeq/g) for dry powders.

[9] = Homo sapiens, HCT-116, 120 h, read-out: IC50

IC50 [1]: >100 µg/mL
Compound: Vitamin E [reference compound]

IC50 [1, 9]: 0.0002 µg/mL (≈ 0.234 nM)
Compound: CC(=O)O[C@H]1C(=O)[C@@]2(C)[C@H]([C@H](OC(=O)c3ccccc3)[C@]3(O)C[C@H](OC(=O)[C@H](O)[C@@H](NC(=O)c4ccccc4)c4ccccc4)C(C)=C1C3(C)C)[C@]1(OC(C)=O)CO[C@@H]1C[C@@H]2O [Taxol, reference compound]

Compound: N.N.[Cl][Pt][Cl] [cis-Platinum, reference compound]
IC50 [1]: 0.10 µg/mL

Compound: Asimicin
clonogenic survival ([2]; 24 h exposure, 10 micrograms/ml): 0.1
effect on clonogenic survival ([2]; 24 h exposure, concentrations up to 1 microgram/ml): no effect
fold greater cell killing than found with the 24 h exposure ([2]; 168 h versus 24 h exposure): ~100.000 fold
effect on the survival of the tumor cells ([2]; concentration of up to 10 micrograms/ml, exposure time not given): no effect
concentration with cell survival at the 0.1 level ([2]; extended exposure 168 h): 200 picograms/ml

Compound: O=c1c(O)c(O)c(=O)c1=O [Croconic Acid]
ORAC hydro SCORE [3]: 1,106 micromoles TE/g
HORAC SCORE [4]: 19 micromoles CAE/g
TOTAL ORAC SCORE [5]: 1,106 micromoles TE/g
ORAC lipo SCORE [6]: 0 micromoles TE/g
NORAC SCORE [7]: 1 micromoles TE/g
SOD SCORE [8]: 0 unitsSODeq/g

IC50 [1, 9]: 0.03 µg/mL (≈ 55.2 nM)
Compound: COc1cccc2c1C(=O)c1c(O)c3c(c(O)c1C2=O)C[C@@](O)(C(=O)CO)C[C@@H]3O[C@H]1C[C@H](N)[C@H](O)[C@H](C)O1 [Adriamycin, reference compound]

IC50 [1, 9]: 0.005 µg/mL (≈ 6.06 nM)
Compound: CC[C@]1(O)C[C@H]2CN(CCc3c([nH]c4ccccc34)[C@@](C(=O)OC)(c3cc4c(cc3OC)N(C=O)[C@H]3[C@@](O)(C(=O)OC)[C@H](OC(C)=O)[C@]5(CC)C=CCN6CC[C@]43[C@@H]65)C2)C1 [Vincristine, reference compound]
